Source: PMC10987521, “An all-in-one tetrazine reagent for cysteine-selective labeling and bioorthogonal activable prodrug construction” (Nature Communications, 2024)
“Also recorded” adds a separate entry of the source. Like-named read-outs stand apart in the source and are kept apart here.

What was measured:
[1] = assay type: physicochemical; details: for intact (%) under 10 mM GSH: 520 nm HPLC–MS (PyTz UV–Vis)
Method: All tetrazine compounds were diluted to a concentration of 50 μM or 2 μM using PBS (10% DMSO, pH 7.4). A stock solution of GSH (400 mM in PBS) was then added to achieve a final concentration of 10 mM. The mixture was homogenized and incubated at 37 °C for 12 h. The stability of the compounds (including all peptide conjugates and PmTz) was assessed by measuring the decrease in peak area at 520 nm (with the initial peak area at 0 min defined as 100%). This measurement was monitored by HPLC–MS. Similarly, the stability of PyTz was determined by monitoring the decrease in peak intensity at 520 nm using UV–Vis. Statistical analysis was performed on data from three replicates to calculate the mean and standard deviation. […]
Response 1: We appreciate your comment. We conducted stability tests on RGD-Dox and RGD-SN-38 in 10 mM GSH at a concentration of 2 μM, which is below the critical micelle concentrations. After incubating at 37 °C for 12 hours, we observed that 95% of RGD-Dox and 85% of RGD-SN-38 remained intact. This stability is slightly less than […]
the observed stability is intrinsic to the peptide-drug conjugates, with a slight enhancement due to micelle […]
concentrations, after 12 hours of incubation at 37 °C (Figure S46). […]
intrinsic to the PDCs, with a slight enhancement by micelle formation.
Details of these experiments have been included in the Supplementary Information (Page S42), as outlined below:
RGD-Dox and RGD-SN-38 were diluted to a concentration of 2 μM using PBS (10% DMSO, pH 7.4). A stock solution of GSH (400 mM in PBS) was then added to achieve a final concentration of 10 mM. The mixture was homogenized and incubated at 37 °C for 12 hours. Stability was assessed by measuring the decrease in peak area at 520 nm (with the initial peak area at 0 min defined as 100%). This measurement was monitored by HPLC–MS. Statistical analysis was performed on data from three replicates to calculate the mean and standard deviation.

B16F10 melanoma tumor = experiment: In vivo anticancer efficacy, subcutaneous B16F10 melanoma tumor model; design: species or system BALB/c nude mice; details: four i.v. courses, 3.67 μmol·kg^−1 (TCO-P4 36.7 μmol·kg^−1), n = 5
Method: Tumor-bearing mice were established by subcutaneously injecting a suspension of 5 × 10^5 B16F10 cells per mouse into the front flank of each nude mouse. When tumor volume reached 50−70 mm^3, the animals were randomly divided into five groups (n = 5). The mice were administered different compounds suspended in PBS via the tail vein every 3 days for a total of four times.
The mice underwent four treatment courses on day 0, day 3, day 6, and day 9. Tumor size and body weight were measured every day. Tumor volume was calculated via the following formula: V = 1/2 × (minor axis) × (major axis)[2].
After 12 days, the mice were sacrificed and dissected to obtain tumor tissues and main organs, including heart, liver, spleen, lung, and kidney. Subsequently, all tissues were fixed in a 4% paraformaldehyde solution, routinely paraffin-embedded and sectioned, and then stained with hematoxylin and eosin, as well as using TdT-mediated dUTP nick-end labeling (TUNEL) for subsequent pathological analysis. TUNEL-positive cells appeared fluorescent green, representing the apoptosis of tumor cells (nuclei were fluorescent blue, stained with DAPI).
13. In vivo anticancer efficacy […]
13.2 Calculation of the tumor growth inhibition values (TGI)
Tumor growth inhibition values (TGI) were calculated using the following formula: TGI (%) = (1 − RTVtreatment/
RTVcontrol)*100. RTV refers to relative tumor volume, representing the ratio of the volume at the end of treatment to the
volume at the beginning of treatment. […]

B16F10 cells = experiment: Cytotoxicity (CCK8, 48 h) of drugs, PDCs, activable-Drugs and TCO, B16F10; assay type: cell-based, Mouse; details: 200 μM TCO
U87 cells = experiment: Cytotoxicity (CCK8, 48 h) of drugs, PDCs, activable-Drugs and TCO, U87; assay type: cell-based, Human; details: 200 μM TCO
MDA-MB-231 cells = experiment: Cytotoxicity (CCK8, 48 h) of drugs, PDCs, activable-Drugs and TCO, MDA-MB-231; assay type: cell-based, Human; details: 200 μM TCO
LX2 cells = experiment: Cytotoxicity (CCK8, 48 h) of drugs, PDCs, activable-Drugs and TCO, LX2; assay type: cell-based, Human; details: 200 μM TCO
SKOV3 cells = experiment: Cytotoxicity (CCK8, 48 h) of drugs, PDCs, activable-Drugs and TCO, SKOV3; assay type: cell-based, Human; details: 200 μM TCO
HepG2 cells = experiment: Cytotoxicity (CCK8, 48 h) of drugs, PDCs, activable-Drugs and TCO, HepG2; details: 200 μM TCO
[2] = 1 h, Data 1, 50 μM, PBS pH 7.4, 10% DMSO, 37 °C
[3] = 1 h, Data 2, 50 μM, PBS pH 7.4, 10% DMSO, 37 °C
[4] = 1 h, Data 3, 50 μM, PBS pH 7.4, 10% DMSO, 37 °C

Structure (SMILES): c1ccc(-c2nnc(-c3ccccn3)nn2)nc1 [PyTz, reference compound]
- intact (%) under 10 mM GSH ([1]; 0.5 h, Data 1, 50 μM, PBS pH 7.4, 10% DMSO, 37 °C): 53%
- intact (%) under 10 mM GSH ([1]; 0.5 h, Data 2, 50 μM, PBS pH 7.4, 10% DMSO, 37 °C): 43.8%
- intact (%) under 10 mM GSH ([1]; 0.5 h, Data 3, 50 μM, PBS pH 7.4, 10% DMSO, 37 °C): 45%
- intact (%) under 10 mM GSH [1, 2]: 19%
- intact (%) under 10 mM GSH [1, 3]: 19.7%
- intact (%) under 10 mM GSH [1, 4]: 15.4%
- intact (%) under 10 mM GSH ([1]; 1.5 h, Data 1, 50 μM, PBS pH 7.4, 10% DMSO, 37 °C): 1.3%
- intact (%) under 10 mM GSH ([1]; 1.5 h, Data 2, 50 μM, PBS pH 7.4, 10% DMSO, 37 °C): 4%
- intact (%) under 10 mM GSH ([1]; 1.5 h, Data 3, 50 μM, PBS pH 7.4, 10% DMSO, 37 °C): 2.9%
- time to degradation with 10 mM GSH ([1]; pH 7.4): ≤ 3 h

Structure (SMILES): COCCOCCOCCOCCC(=O)NCCC1(O)CC/C=C/CCC1 (racemic) [TCO-P4]
- tumor growth / inhibition in words (B16F10 melanoma tumor): did not exhibit significant tumor inhibition; also recorded: rapid tumor growth

Structure (SMILES): Cc1nnc(-c2ncccn2)nn1 [PmTz, pyrimidine tetrazine, reference compound]
- intact (%) under 10 mM GSH [1, 2]: 86.4895%
- intact (%) under 10 mM GSH [1, 3]: 82.9483%
- intact (%) under 10 mM GSH [1, 4]: 87.2017%
- intact (%) under 10 mM GSH ([1]; 3 h, Data 1, 50 μM, PBS pH 7.4, 10% DMSO, 37 °C): 75.526%
- intact (%) under 10 mM GSH ([1]; 3 h, Data 2, 50 μM, PBS pH 7.4, 10% DMSO, 37 °C): 72.3872%
- intact (%) under 10 mM GSH ([1]; 3 h, Data 3, 50 μM, PBS pH 7.4, 10% DMSO, 37 °C): 74.6204%
- intact (%) under 10 mM GSH ([1]; 5 h, Data 1, 50 μM, PBS pH 7.4, 10% DMSO, 37 °C): 63.0897%
- intact (%) under 10 mM GSH ([1]; 5 h, Data 2, 50 μM, PBS pH 7.4, 10% DMSO, 37 °C): 68.3168%
- intact (%) under 10 mM GSH ([1]; 5 h, Data 3, 50 μM, PBS pH 7.4, 10% DMSO, 37 °C): 70.9327%
- intact (%) under 10 mM GSH ([1]; 8 h, Data 1, 50 μM, PBS pH 7.4, 10% DMSO, 37 °C): 50.7674%
- intact (%) under 10 mM GSH ([1]; 8 h, Data 2, 50 μM, PBS pH 7.4, 10% DMSO, 37 °C): 52.9065%
- intact (%) under 10 mM GSH ([1]; 8 h, Data 3, 50 μM, PBS pH 7.4, 10% DMSO, 37 °C): 52.3167%
- remained intact with 10 mM GSH ([1]; 12 h, 37 °C, 50 μM, PBS pH 7.4, 10% DMSO, HPLC–MS peak area 520 nm, mean of n = 3): 38%
- intact (%) under 10 mM GSH ([1]; 12 h, Data 1, 50 μM, PBS pH 7.4, 10% DMSO, 37 °C): 38.6932%
- intact (%) under 10 mM GSH ([1]; 12 h, Data 2, 50 μM, PBS pH 7.4, 10% DMSO, 37 °C): 39.3861%
- intact (%) under 10 mM GSH ([1]; 12 h, Data 3, 50 μM, PBS pH 7.4, 10% DMSO, 37 °C): 35.5445%

Structure (SMILES): C1=C/CCCCCC/1 [TCO, trans-cyclooctene]
- B16F10 (Cell viability%) (B16F10 cells; Data 1): 97.5688%
- B16F10 (Cell viability%) (B16F10 cells; Data 2): 97.508%
- B16F10 (Cell viability%) (B16F10 cells; Data 3): 97.9504%
- U87 (Cell viability%) (U87 cells; Data 1): 96.2952%
- U87 (Cell viability%) (U87 cells; Data 2): 96.092%
- U87 (Cell viability%) (U87 cells; Data 3): 96.4775%
- MDA-MB-231 (Cell viability%) (MDA-MB-231 cells; Data 1): 96.0832%
- MDA-MB-231 (Cell viability%) (MDA-MB-231 cells; Data 2): 97.4309%
- MDA-MB-231 (Cell viability%) (MDA-MB-231 cells; Data 3): 97.8186%
- LX2 (Cell viability%) (LX2 cells; Data 1): 99.7395%
- LX2 (Cell viability%) (LX2 cells; Data 2): 98.5462%
- LX2 (Cell viability%) (LX2 cells; Data 3): 97.8594%
- SKOV3 (Cell viability%) (SKOV3 cells; Data 1): 93.7367%
- SKOV3 (Cell viability%) (SKOV3 cells; Data 2): 92.4982%
- SKOV3 (Cell viability%) (SKOV3 cells; Data 3): 93.3583%
- HepG2 (Cell viability%) (HepG2 cells; Data 1): 94.3888%
- HepG2 (Cell viability%) (HepG2 cells; Data 2): 93.5935%
- HepG2 (Cell viability%) (HepG2 cells; Data 3): 92.7384%
